This is an account of results in PubChem BioAssay AID330 (DTP/NCI, 2004).

The test system of this test is P388 leukemia ip, CD2F1 mice, survival T/C. Kind of test: NCI In Vivo Anticancer Drug Screen. Data for tumor model P388 Leukemia (intraperitoneal) in CD2F1 (CDF1) mice. The following applies: endpoint: median survival time, higher = longer survival. On the procedure:
The antitumor activity of compounds was measured in mice bearing transplantable tumors. Survival or tumor size were measured and the results are expressed as the measurement made in the treated group (T) divided by the measurement made in the vehicle treated control group (C). The tumor model used in this assay is P388 Leukemia (intraperitoneal) in CD2F1 (CDF1) mice

Where [1] appears, read: dose: 25.0 mg/kg/injection, schedule: Q01DX009 (ip), vehicle: saline with Tween-80.
Setting [2] is: dose: 50.0 mg/kg/injection, schedule: Q01DX009 (ip), vehicle: saline with Tween-80.
The mark [3] stands for this setting: dose: 12.5 mg/kg/injection, schedule: Q01DX009 (ip), vehicle: saline with Tween-80.
[4] abbreviates: dose: 25.0 mg/kg/injection, schedule: Q04DX003 (ip), vehicle: saline with Tween-80.
Setting [5] is: dose: 60.0 mg/kg/injection, schedule: Q01DX005 (ip), vehicle: saline with Tween-80.
[6] abbreviates: dose: 120.0 mg/kg/injection, schedule: Q01DX005 (ip), vehicle: saline with Tween-80.
Setting [7] is: dose: 240.0 mg/kg/injection, schedule: Q01DX005 (ip), vehicle: saline with Tween-80.
[8] abbreviates: dose: 60.0 mg/kg/injection, schedule: Q01DX005 (ip), vehicle: Klucel (hydroxypropylcellulose) (HPC).
[9] abbreviates: dose: 120.0 mg/kg/injection, schedule: Q01DX005 (ip), vehicle: Klucel (hydroxypropylcellulose) (HPC).
The mark [10] stands for this setting: dose: 240.0 mg/kg/injection, schedule: Q01DX005 (ip), vehicle: Klucel (hydroxypropylcellulose) (HPC).

“And” between values parts separate entries of the source, which are not always exact repeats. Identical values can stand only once. Inconclusive results and toxic doses are left out.

`CCN(CC)CCCNC(C)=O`: the T/C is 100 % of control (dose: 100.0 mg/kg/injection, schedule: Q04DX003 (ip), vehicle: saline); 91 % of control (dose: 200.0 mg/kg/injection, schedule: Q04DX003 (ip), vehicle: saline); 95 % of control (dose: 400.0 mg/kg/injection, schedule: Q04DX003 (ip), vehicle: saline).

Regarding `C=C(Cl)C(=NC1CCCCC1)NC(C)(C)C`, the T/C was 97 % of control (dose: 0.79 mg/kg/injection, schedule: Q01DX005 (ip), vehicle: Klucel (hydroxypropylcellulose) (HPC)); 101 % of control and 107 % of control (dose: 1.56 mg/kg/injection, schedule: Q01DX005 (ip), vehicle: Klucel (hydroxypropylcellulose) (HPC)); 104 % of control and 107 % of control and 109 % of control (dose: 3.12 mg/kg/injection, schedule: Q01DX005 (ip), vehicle: Klucel (hydroxypropylcellulose) (HPC)); 116 % of control (dose: 6.25 mg/kg/injection, schedule: Q01DX005 (ip), vehicle: Klucel (hydroxypropylcellulose) (HPC)); 110 % of control (dose: 12.5 mg/kg/injection, schedule: Q01DX005 (ip), vehicle: Klucel (hydroxypropylcellulose) (HPC)).

With `O=C(OCCO)c1c(Cl)c(Cl)c(Cl)c(Cl)c1-c1c2cc(Br)c(=O)c(Br)c-2oc2c(Br)c(O)c(Br)cc12`, the T/C reads like this: (dose: 60.0 mg/kg/injection, schedule: Q01DX005 (ip), vehicle: saline) 94 % of control; (dose: 120.0 mg/kg/injection, schedule: Q01DX005 (ip), vehicle: saline) 92 % of control.

As for `CC1(C)C(N)C(C)(C)C1N` (stereo unspecified), the T/C (dose: 50.0 mg/kg/injection, schedule: Q01DX009 (ip), vehicle: saline) was 94 % of control; the T/C (dose: 100.0 mg/kg/injection, schedule: Q01DX009 (ip), vehicle: saline) is 97 % of control; the T/C (dose: 200.0 mg/kg/injection, schedule: Q01DX009 (ip), vehicle: saline) was 86 % of control.

For `COc1ccc2c(N)c3c4ccccc4cc[n+]3cc2c1OC`, the T/C reads like this: (dose: 3.13 mg/kg/injection, schedule: Q04DX003 (ip), vehicle: water) 106 % of control and 112 % of control; (dose: 6.25 mg/kg/injection, schedule: Q04DX003 (ip), vehicle: water) 106 % of control and 114 % of control; (dose: 12.5 mg/kg/injection, schedule: Q04DX003 (ip), vehicle: water) 112 % of control; (dose: 25.0 mg/kg/injection, schedule: Q04DX003 (ip), vehicle: water) 121 % of control.

Take `CCCCCOCC(=O)O`: the T/C under setting [1] is 104 % of control; the T/C under setting [2] was 94 % of control; the T/C (dose: 100.0 mg/kg/injection, schedule: Q01DX009 (ip), vehicle: saline with Tween-80) is 96 % of control.

Turning to `Nc1ncnc2c1c1c(=O)[nH]c(=O)[nH]c1n2C1OC(CO)C(O)C1O` (stereo unspecified), the T/C is, setting by setting: (dose: 25.0 mg/kg/injection, schedule: Q01DX005 (ip), vehicle: distilled water + Tween-80) 113 % of control; (dose: 50.0 mg/kg/injection, schedule: Q01DX005 (ip), vehicle: distilled water + Tween-80) 110 % of control; (dose: 100.0 mg/kg/injection, schedule: Q01DX005 (ip), vehicle: distilled water + Tween-80) 111 % of control; (dose: 200.0 mg/kg/injection, schedule: Q01DX005 (ip), vehicle: distilled water + Tween-80) 111 % of control; (dose: 400.0 mg/kg/injection, schedule: Q01DX005 (ip), vehicle: distilled water + Tween-80) 121 % of control.

With `O=S(=O)(Nc1ccccc1)c1ccc(C2CC3(Cl)C(Cl)=C(Cl)C2(Cl)C3(Cl)Cl)cc1` (stereo unspecified), the T/C (dose: 100.0 mg/kg/injection, schedule: Q01DX009 (ip), vehicle: saline sonified) was 90 % of control; the T/C (dose: 200.0 mg/kg/injection, schedule: Q01DX009 (ip), vehicle: saline sonified) was 90 % of control; the T/C (dose: 400.0 mg/kg/injection, schedule: Q01DX009 (ip), vehicle: saline sonified) was 90 % of control.

As to `NC(N)=N/N=C/c1ccc(-c2ccccc2)cc1`, the T/C runs as follows: (dose: 6.25 mg/kg/injection, schedule: Q01DX009 (ip), vehicle: saline with Tween-80) 104 % of control; (dose: 6.25 mg/kg/injection, schedule: Q04DX003 (ip), vehicle: saline with Tween-80) 100 % of control; under setting [3], 104 % of control; (dose: 12.5 mg/kg/injection, schedule: Q04DX003 (ip), vehicle: saline with Tween-80) 100 % of control; under setting [4], 100 % of control.

With `O=C(Nc1ccc(Cl)cc1)Nc1nnc2nc(CC(=O)c3ccccc3)c(=O)[nH]n12`, the T/C reads like this: under setting [5], 98 % of control; under setting [6], 99 % of control; under setting [7], 91 % of control.

For the compound `O=C(CCCCO)c1nc2ccccc2s1`, the T/C under setting [8] is 98 % of control, the T/C under setting [9] was 102 % of control and the T/C under setting [10] was 95 % of control.

Consider `COc1ccc(/C=N/NC(=S)NN)cc1`, for which the T/C by setting is: under setting [5], 99 % of control; under setting [6], 100 % of control; under setting [7], 98 % of control.

Take `Nc1nn(-c2cccc(C(F)(F)F)c2)c2cccc[n+]12`: the T/C under setting [3] is 100 % of control; the T/C under setting [1] is 105 % of control; the T/C (dose: 25.0 mg/kg/injection, schedule: Q01DX009 (ip), vehicle: water) was 111 % of control; the T/C under setting [2] is 100 % of control; the T/C (dose: 50.0 mg/kg/injection, schedule: Q01DX009 (ip), vehicle: water) was 106 % of control.

With `Cc1ccc(S(=O)(=O)NCCCl)cc1`, the T/C runs as follows: under setting [4], 104 % of control; (dose: 50.0 mg/kg/injection, schedule: Q04DX003 (ip), vehicle: saline with Tween-80) 99 % of control; (dose: 100.0 mg/kg/injection, schedule: Q04DX003 (ip), vehicle: saline with Tween-80) 114 % of control; (dose: 200.0 mg/kg/injection, schedule: Q04DX003 (ip), vehicle: saline with Tween-80) 98 % of control.

As to `COc1ccc2cc1Oc1cc3c(cc1OC)CC[N+](C)(C)C3Cc1ccc(cc1)Oc1c(OC)c(OC)cc3c1C(C2)[N+](C)(C)CC3` (stereo unspecified), the T/C runs as follows: (dose: 0.03 mg/kg/injection, schedule: Q01DX009 (ip), vehicle: saline) 102 % of control and 106 % of control; (dose: 0.07 mg/kg/injection, schedule: Q01DX009 (ip), vehicle: saline) 100 % of control and 113 % of control; (dose: 0.15 mg/kg/injection, schedule: Q01DX009 (ip), vehicle: saline) 105 % of control and 106 % of control and 121 % of control; (dose: 0.31 mg/kg/injection, schedule: Q01DX009 (ip), vehicle: saline) 105 % of control and 112 % of control and 96 % of control; (dose: 0.62 mg/kg/injection, schedule: Q01DX009 (ip), vehicle: saline) 118 % of control.

As to `CN1CCN(c2ccccc2N)CC1`, the T/C was 104 % of control (dose: 5.0 mg/kg/injection, schedule: Q01DX009 (ip), vehicle: saline with Tween-80); 100 % of control (dose: 10.0 mg/kg/injection, schedule: Q01DX009 (ip), vehicle: saline with Tween-80); 95 % of control (dose: 20.0 mg/kg/injection, schedule: Q01DX009 (ip), vehicle: saline with Tween-80).

Regarding `CCN(CC)P(=O)(N1CC1C)N1CC1C` (stereo unspecified), the T/C was 109 % of control (dose: 33.0 mg/kg/injection, schedule: Q04DX003 (ip), vehicle: saline) and 150 % of control (dose: 75.0 mg/kg/injection, schedule: Q04DX003 (ip), vehicle: saline).

`O/N=C/c1cc(I)cc(I)c1O`: the T/C is, setting by setting: (dose: 50.0 mg/kg/injection, schedule: Q01DX005 (ip), vehicle: saline with Tween-80) 90 % of control; (dose: 100.0 mg/kg/injection, schedule: Q01DX005 (ip), vehicle: saline with Tween-80) 99 % of control; (dose: 200.0 mg/kg/injection, schedule: Q01DX005 (ip), vehicle: saline with Tween-80) 99 % of control.

Turning to `CC(C)(C)c1ccc(OP(=S)(NN)Oc2ccc(C(C)(C)C)cc2)cc1`, the T/C reads like this: (dose: 50.0 mg/kg/injection, schedule: Q01DX009 (ip), vehicle: Klucel (hydroxypropylcellulose) (HPC)) 98 % of control; (dose: 100.0 mg/kg/injection, schedule: Q01DX009 (ip), vehicle: Klucel (hydroxypropylcellulose) (HPC)) 102 % of control; (dose: 200.0 mg/kg/injection, schedule: Q01DX009 (ip), vehicle: Klucel (hydroxypropylcellulose) (HPC)) 94 % of control.

For `CSc1n[nH]c(C(F)(F)F)n1`, the T/C is, setting by setting: (dose: 30.0 mg/kg/injection, schedule: Q01DX005 (ip), vehicle: Klucel (hydroxypropylcellulose) (HPC)) 105 % of control; under setting [8], 103 % of control; under setting [9], 95 % of control; under setting [10], 94 % of control.
